{
  "source": "patent US8389557B2",
  "about": "“Triazole derivatives useful as Axl inhibitors” (Rigel Pharmaceuticals, Inc., priority 2005, dated 2013)",
  "target": "T1, Axl (Homo sapiens, UniProt P30530)",
  "T1 construct": "endogenous in cells; host or cells: HeLa cells",
  "T1 sequence (P30530 26-894)": "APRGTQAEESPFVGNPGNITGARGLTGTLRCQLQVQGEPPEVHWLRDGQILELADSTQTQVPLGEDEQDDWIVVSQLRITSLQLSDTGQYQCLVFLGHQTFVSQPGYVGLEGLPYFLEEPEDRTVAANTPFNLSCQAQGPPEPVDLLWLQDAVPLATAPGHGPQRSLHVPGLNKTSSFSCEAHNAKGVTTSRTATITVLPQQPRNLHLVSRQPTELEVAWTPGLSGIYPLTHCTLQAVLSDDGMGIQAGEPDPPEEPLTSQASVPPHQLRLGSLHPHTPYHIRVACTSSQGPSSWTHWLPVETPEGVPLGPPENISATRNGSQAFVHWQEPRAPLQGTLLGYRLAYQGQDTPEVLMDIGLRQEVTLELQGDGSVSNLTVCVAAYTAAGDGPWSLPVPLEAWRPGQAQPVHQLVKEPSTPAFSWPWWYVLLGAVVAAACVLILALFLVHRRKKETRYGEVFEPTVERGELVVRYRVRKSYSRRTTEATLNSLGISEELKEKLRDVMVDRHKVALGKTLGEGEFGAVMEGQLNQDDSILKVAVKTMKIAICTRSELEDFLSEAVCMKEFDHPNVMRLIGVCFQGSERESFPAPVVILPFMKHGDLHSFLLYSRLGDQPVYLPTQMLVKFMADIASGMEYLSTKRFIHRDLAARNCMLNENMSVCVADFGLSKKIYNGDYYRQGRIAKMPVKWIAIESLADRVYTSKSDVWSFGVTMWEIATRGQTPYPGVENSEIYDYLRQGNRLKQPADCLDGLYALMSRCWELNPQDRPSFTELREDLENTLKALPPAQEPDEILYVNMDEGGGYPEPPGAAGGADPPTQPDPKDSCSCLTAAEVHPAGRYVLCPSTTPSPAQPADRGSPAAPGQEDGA",
  "assay": "Phospho-Akt in-cell Western assay (inhibition of Axl activity)",
  "type": "cell-based",
  "how_it_was_run": "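HeLa cells on poly-L-lysine, starved 24 h in 0.5% FCS DMEM with Axl/Fc 500 ng/mL, pre-treated with compound 1 h at 37° C. Axl stimulated 5 min by anti-Axl/anti-mouse antibody cross-linking. Fixed cells probed with anti-phospho-Akt and HRP secondary, chemiluminescence read.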",
  "key": {"[1]": {"settings": "Table 3, Hela cells, Axl antibody cross-linking stimulation, phospho-Akt chemiluminescence"}, "[2]": {"settings": "inhibition of Axl activity, phospho-Akt in-cell Western assay, Table 1"}, "[3]": {"settings": "inhibition of Axl activity, Table 1"}, "[4]": {"settings": "Table 7, Hela cells, Axl antibody cross-linking stimulation, phospho-Akt chemiluminescence"}, "[5]": {"settings": "Table 2, Hela cells, Axl antibody cross-linking stimulation, phospho-Akt chemiluminescence"}},
  "data": [
    {"smiles": "Nc1nc(Nc2ccc(OCCN3CCCC3)cc2)nn1C(=O)c1ccc2ncccc2c1", "note": "[compound 288, 5-amino-1-(quinolin-6-yl)carbonyl-3-[4-[2-(pyrrolidin-1-yl)ethoxy]phenylamino]-1H-1,2,4-triazole]", "values": [
      {"measurement": "IC50", "setting": "[1]", "result": "< 1", "unit": "µM"}
    ]},
    {"smiles": "CC(C)Oc1ccc(C(=O)n2nc(Nc3ccccc3)nc2N)cc1", "note": "[compound 333, 5-amino-1-(4-(iso-propoxy)phenyl)carbonyl-3-(phenylamino)-1H-1,2,4-triazole]", "values": [
      {"measurement": "IC50", "setting": "[2]", "result": "1 to 10", "unit": "µM"}
    ]},
    {"smiles": "Nc1nc(Nc2ccc(N3CCOCC3)cc2)nn1C(=O)c1cccc(O)c1", "note": "[compound 67, 5-amino-1-(3-(hydroxy)phenyl)carbonyl-3-(4-(morpholin-4-yl)phenylamino)-1H-1,2,4-triazole]", "values": [
      {"measurement": "IC50", "setting": "[3]", "result": "1 to 10", "unit": "µM"}
    ]},
    {"smiles": "COc1ccc(Nc2nc(N)n(C(=O)c3ccc(C)cc3)n2)cc1", "note": "[compound 132, 5-amino-3-[4-(methoxy)phenylamino]-1-(4-(methyl)phenyl)carbonyl-1H-1,2,4-triazole]", "values": [
      {"measurement": "IC50", "setting": "[3]", "result": "1 to 10", "unit": "µM"}
    ]},
    {"smiles": "COc1ccc(Nc2nc(N)n(C(=O)Nc3ccc(Cl)cc3)n2)cc1", "note": "[compound 172, 5-amino-N-(4-chlorophenyl)-3-[4-(methoxy)phenylamino]-1H-1,2,4-triazole-1-carboxamide]", "values": [
      {"measurement": "IC50", "setting": "[4]", "result": "> 20", "unit": "µM"}
    ]},
    {"smiles": "Cc1cc(C(=O)n2nc(N)nc2Nc2ccc3c(c2)OCCO3)ccc1F", "note": "[compound 241, 3-amino-5-(1,4-benzodioxan-6-yl)amino-1-[(4-fluoro-3-methyl)phenyl]carbonyl-1H-1,2,4-triazole]", "values": [
      {"measurement": "IC50", "setting": "[5]", "result": "> 20", "unit": "µM"}
    ]},
    {"smiles": "CC(C)Oc1ccc(C(=O)n2nc(Nc3ccc(OCCN4CCCC4)c(F)c3)nc2N)cc1", "note": "[compound 307, 5-amino-1-(4-(iso-propoxy)phenyl)carbonyl-3-[3-fluoro-4-[2-(pyrrolidin-1-yl)ethoxy]phenylamino]-1H-1,2,4-triazole]", "values": [
      {"measurement": "IC50", "setting": "[2]", "result": "< 1", "unit": "µM"}
    ]},
    {"smiles": "Nc1nc(Nc2ccc(OCCN3CCCCC3)cc2)n(C(=O)Nc2ccc3c(c2)OCO3)n1", "note": "[compound 193, 3-amino-N-(1,3-benzodioxol-5-yl)-5-[4-[2-(piperidin-1-yl)ethoxy]phenylamino]-1H-1,2,4-triazole-1-carboxamide]", "values": [
      {"measurement": "IC50", "setting": "Table 8, Hela cells, Axl antibody cross-linking stimulation, phospho-Akt chemiluminescence", "result": "1 to 10", "unit": "µM"}
    ]},
    {"smiles": "CC(C)Oc1ccc(Nc2nc(N)n(C(=O)c3ccc(OCCN4CCCCC4)cc3)n2)cc1", "note": "[compound 77, 5-amino-3-[4-(iso-propoxy)phenylamino]-1-[4-[2-(piperidin-1-yl)ethoxy]phenyl)carbonyl-1H-1,2,4-triazole]", "values": [
      {"measurement": "IC50", "setting": "[3]", "result": "1 to 10", "unit": "µM"}
    ]},
    {"smiles": "CN(C)c1cccc(C(=O)n2nc(Nc3ccc(OCCCN4CCCC4)cc3)nc2N)c1", "note": "[compound #20, 5-Amino-1-(3-(dimethylamino)phenyl)carbonyl-3-[4-[3-(pyrrolidin-1-yl)propoxy]phenylamino]-1H-1,2,4-triazole]", "values": [
      {"measurement": "IC50", "setting": "[2]", "result": "< 1", "unit": "µM"}
    ]},
    {"smiles": "CN(C)c1cccc(C(=O)n2nc(N)nc2NC2C3C=CC(C3)C2C(N)=O)c1", "note": "(stereo not drawn) [compound 351, 3-amino-1-(3-(dimethylamino)phenyl)carbonyl-5-[(3-(aminocarbonyl)bicyclo[2.2.1]hept-5-en-2-yl)amino]-1H-1,2,4-triazole]", "values": [
      {"measurement": "IC50", "setting": "Table 6, Hela cells, Axl antibody cross-linking stimulation, phospho-Akt chemiluminescence", "result": "> 20", "unit": "µM"}
    ]},
    {"smiles": "CC(C)Oc1ccc(C(=O)n2nc(N)nc2Nc2ccc(N3CCCCC3)cc2)cc1", "note": "[compound 192, 3-amino-1-(4-(iso-propoxy)phenyl)carbonyl-5-[4-(piperidin-1-yl)phenylamino]-1H-1,2,4-triazole]", "values": [
      {"measurement": "IC50", "setting": "[5]", "result": "10 to 20", "unit": "µM"}
    ]},
    {"smiles": "Nc1nc(Nc2ccc(OCCN3CCCC3)cc2)nn1C(=O)c1ccncc1", "note": "[compound 204, 5-amino-1-(pyridin-4-yl)carbonyl-3-[4-[2-(pyrrolidin-1-yl)ethoxy]phenylamino]-1H-1,2,4-triazole]", "values": [
      {"measurement": "IC50", "setting": "[1]", "result": "> 20", "unit": "µM"}
    ]},
    {"smiles": "Nc1nc(Nc2ccc(OCCN3CCCC3)cc2)nn1C(=O)c1ccc(-c2cccs2)cc1", "note": "[compound 311, 5-amino-1-(4-(thien-2-yl)phenyl)carbonyl-3-[4-[2-(pyrrolidin-1-yl)ethoxy]phenylamino]-1H-1,2,4-triazole]", "values": [
      {"measurement": "IC50", "setting": "[2]", "result": "< 1", "unit": "µM"}
    ]},
    {"smiles": "Nc1nc(Nc2ccc(OCCN3CCCC3)cc2)nn1C(=O)Nc1ccc2c(c1)OCO2", "note": "[compound 36, 5-amino-N-(1,3-benzodioxol-5-yl)-3-[4-[2-(pyrrolidin-1-yl)ethoxy]phenylamino]-1H-1,2,4-triazole-1-carboxamide]", "values": [
      {"measurement": "IC50", "setting": "[4]", "result": "1 to 10", "unit": "µM"}
    ]},
    {"smiles": "Cc1cccc(C(=O)n2nc(Nc3cccc(OCS(C)(=O)=O)c3)nc2N)c1", "note": "[compound 235, 5-amino-1-(3-methylphenyl)carbonyl-3-[3-(methylsulfonylmethoxy)phenyl]amino-1H-1,2,4-triazole]", "values": [
      {"measurement": "IC50", "setting": "[3]", "result": "1 to 10", "unit": "µM"}
    ]},
    {"smiles": "Cc1cccc(C(=O)n2nc(Nc3ccc4cn(C)nc4c3)nc2N)c1", "note": "[compound 253, 5-amino-3-(1H-2-methyl-indazol-6-yl)amino-1-(3-methylphenyl)carbonyl-1H-1,2,4-triazole]", "values": [
      {"measurement": "IC50", "setting": "Table 5, Hela cells, Axl antibody cross-linking stimulation, phospho-Akt chemiluminescence", "result": "1 to 10", "unit": "µM"}
    ]},
    {"smiles": "Cc1ccc(C(=O)n2nc(Nc3ccc(OCCN4CCCCC4)cc3)nc2N)cc1", "note": "[compound 53, 5-amino-1-(4-(methyl)phenyl)carbonyl-3-[4-[2-(piperidin-1-yl)ethoxy]phenylamino]-1H-1,2,4-triazole]", "values": [
      {"measurement": "IC50", "setting": "[3]", "result": "< 1", "unit": "µM"}
    ]},
    {"smiles": "CC(C)Oc1ccc(C(=O)n2nc(Nc3cccc(OCC#N)c3)nc2N)cc1", "note": "[(Ia-21), 5-amino-3-[3-(cyanomethoxy)phenylamino]-1-(4-(iso-propoxy)phenyl)carbonyl-1H-1,2,4-triazole]", "values": [
      {"measurement": "IC50", "setting": "[3]", "result": "1 to 10", "unit": "µM"}
    ]},
    {"smiles": "COC(=O)COc1ccc(Nc2nc(N)n(C(=O)c3ccc(OC(C)C)cc3)n2)cc1", "note": "[compound 157, 5-amino-1-(4-(iso-propoxy)phenyl)carbonyl-3-[4-(methoxycarbonylmethoxy)phenylamino]-1H-1,2,4-triazole]", "values": [
      {"measurement": "IC50", "setting": "[3]", "result": "1 to 10", "unit": "µM"}
    ]},
    {"smiles": "CC(C)(C)c1ccc(C(=O)n2nc(Nc3cccc(-c4cnco4)c3)nc2N)cc1", "note": "[compound 263, 5-amino-1-(4-(tert-butyl)phenyl)carbonyl-3-[3-(1,3-oxazol-5-yl)phenylamino]-1H-1,2,4-triazole]", "values": [
      {"measurement": "IC50", "setting": "[2]", "result": "1 to 10", "unit": "µM"}
    ]},
    {"smiles": "CN1CCN(c2ccc(Nc3nc(N)n(C(=O)c4cccc(N(C)C)c4)n3)cc2)CC1", "note": "[compound 363, 5-amino-1-(3-(dimethylamino)phenyl)carbonyl-3-[4-(4-methylpiperazin-1-yl)phenylamino]-1H-1,2,4-triazole]", "values": [
      {"measurement": "IC50", "setting": "[2]", "result": "< 1", "unit": "µM"}
    ]},
    {"smiles": "CN1CCN(c2ccc(Nc3nc(N)n(C(=O)c4ccc(N(C)C)cc4)n3)cc2)CC1", "note": "[compound 361, 5-amino-1-(4-(dimethylamino)phenyl)carbonyl-3-[4-(4-methylpiperazin-1-yl)phenylamino]-1H-1,2,4-triazole]", "values": [
      {"measurement": "IC50", "setting": "[2]", "result": "< 1", "unit": "µM"}
    ]},
    {"smiles": "Cc1cccc(C(=O)n2nc(Nc3ccc(OCCN4CCCC4)cc3)nc2N)c1", "note": "[compound #9, 5-Amino-1-(3-methylphenyl)carbonyl-3-[4-[2-(pyrrolidin-1-yl)ethoxy]phenylamino]-1H-1,2,4-triazole]", "values": [
      {"measurement": "IC50", "setting": "[2]", "result": "< 1", "unit": "µM"}
    ]},
    {"smiles": "Nc1nc(Nc2ccc(OCCN3CCCC3)cc2)nn1C(=O)c1ccc(N2CCCCC2)cc1", "note": "[compound 401, 5-amino-1-(4-(piperidin-1-yl)phenyl)carbonyl-3-[4-[2-(pyrrolidin-1-yl)ethoxy]phenylamino]-1H-1,2,4-triazole]", "values": [
      {"measurement": "IC50", "setting": "[2]", "result": "< 1", "unit": "µM"}
    ]},
    {"smiles": "CN(C)c1ccc(C(=O)n2nc(Nc3ccc4c(c3)OCCO4)nc2N)cc1", "note": "[compound 247, 5-amino-1-[(4-dimethylamino)phenyl]carbonyl-3-(1,4-benzodioxan-6-yl)amino-1H-1,2,4-triazole]", "values": [
      {"measurement": "IC50", "setting": "[3]", "result": "1 to 10", "unit": "µM"}
    ]},
    {"smiles": "Cc1ccsc1C(=O)n1nc(Nc2ccc(OCCN3CCCC3)cc2)nc1N", "note": "[compound 283, 5-amino-1-(3-methylthien-2-yl)carbonyl-3-[4-[2-(pyrrolidin-1-yl)ethoxy]phenylamino]-1H-1,2,4-triazole]", "values": [
      {"measurement": "IC50", "setting": "[1]", "result": "< 1", "unit": "µM"}
    ]}
  ]
}
